IC50 data for 29 compounds are collected here from patent US11649255B2, “Indazoles as hematopoietic progenitor kinase 1 (HPK1) inhibitors and methods using same” (1st Biotherapeutics, Inc., priority 2020, dated 2023).

For orientation: pIC50 means the IC50 on a negative log10 scale, so that one unit is a factor of ten.

The target of the assay is recombinant human HPK1 (Homo sapiens (Human), UniProt Q92918). The assay can be described thus: HPK1 kinase assay (ADP-Glo). Format: biochemical. The following applies: 25 μM ATP, MBP substrate. As to the method:
HPK1 kinase activity was measured by Promega's ADP-Glo™ kinase assay. In this assay, 5 ng of recombinant human HPK1 (signalchem) is incubated with 5 μL of compounds (0.5% DMSO), 5 μL of MBP (0.5 μg/μl) and 5 μL of ATP (25 μM) in buffer (40 mM Tris, 7.5; 20 mM MgCl2; 0.1 mg/ml BSA; 5 μM DTT). The assay was started by incubating the reaction mixture in a 96-well plate at 30′ C for 40 minutes. After the incubation, 25 uL ADP-Glo reagent was added and the reaction was incubated at room temperature for 40-min to stop the reaction and degrade residual ATP. The ADP product was then converted to ATP by adding 50 uL per well of detection reagent. Luminescence was detected after 30-min room temperature incubation with the Molecular device I3X plate reader. The IC50 values were calculated from a series of percent inhibition values determined at a range of inhibitor concentration using software routines as implemented in the GraphPad Prism 7 software and SigmaPlot13.0.

pIC50: −log10 of the molar value.

Sequence of recombinant human HPK1 (Q92918 whole entry): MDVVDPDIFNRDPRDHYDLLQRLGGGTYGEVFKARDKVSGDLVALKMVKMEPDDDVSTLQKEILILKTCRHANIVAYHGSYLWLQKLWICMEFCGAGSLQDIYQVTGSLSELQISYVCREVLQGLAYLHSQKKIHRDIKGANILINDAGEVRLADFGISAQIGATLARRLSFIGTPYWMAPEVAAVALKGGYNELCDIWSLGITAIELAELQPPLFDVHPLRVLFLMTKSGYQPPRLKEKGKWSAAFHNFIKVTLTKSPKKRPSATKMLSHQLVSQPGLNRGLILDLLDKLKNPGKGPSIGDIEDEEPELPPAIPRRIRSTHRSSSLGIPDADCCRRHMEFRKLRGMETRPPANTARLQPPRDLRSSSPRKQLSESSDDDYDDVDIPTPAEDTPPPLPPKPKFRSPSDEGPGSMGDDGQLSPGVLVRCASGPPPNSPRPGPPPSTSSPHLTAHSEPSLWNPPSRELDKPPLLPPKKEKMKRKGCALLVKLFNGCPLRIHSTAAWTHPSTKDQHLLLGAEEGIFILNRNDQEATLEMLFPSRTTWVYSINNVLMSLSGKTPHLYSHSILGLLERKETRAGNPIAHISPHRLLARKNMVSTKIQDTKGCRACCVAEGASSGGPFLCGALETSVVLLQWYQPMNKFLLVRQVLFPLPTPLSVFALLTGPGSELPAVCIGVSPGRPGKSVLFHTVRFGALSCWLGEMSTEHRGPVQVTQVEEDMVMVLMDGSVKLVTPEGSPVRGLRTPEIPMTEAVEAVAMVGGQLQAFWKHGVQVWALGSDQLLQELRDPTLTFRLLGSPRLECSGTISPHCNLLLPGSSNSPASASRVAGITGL

For `O=C(Nc1nc2ccc(-c3c(C4CC4)ccc4[nH]ncc34)cc2s1)[C@@H]1C[C@@H]1F` [Example 37, (1S,2S)-N-(6-(5-cyclopropyl-1H-indazol-4-yl)benzo[d]thiazol-2-yl)-2-fluorocyclopropane-1-carboxamide], the pIC50 is 6.30 to 7.00. Take `O=C(Nc1nc2ccc(-c3c(Cn4cccn4)ccc4[nH]ncc34)cc2s1)[C@@H]1C[C@@H]1F` [Example 38, (1S,2S)-N-(6-(5-((1H-pyrazol-1-yl)methyl)-1H-indazol-4-yl)benzo[d]thiazol-2-yl)-2-fluorocyclopropane-1-carboxamide]: the pIC50 was below 6.00. In the case of `C#Cc1ccc2[nH]ncc2c1-c1ccc2nc(NC(=O)[C@@H]3C[C@@H]3F)sc2c1` [Example 39, (1S,2S)-N-(6-(5-ethynyl-1H-indazol-4-yl)benzo[d]thiazol-2-yl)-2-fluorocyclopropane-1-carboxamide], the pIC50 is 6.30 to 7.00.

For the compound `Cc1c(F)cc2[nH]ncc2c1-c1ccc2nc(NC(=O)[C@@H]3C[C@@H]3F)sc2c1` [Example 40, (1S,2S)-2-fluoro-N-(6-(6-fluoro-5-methyl-1H-indazol-4-yl)benzo[d]thiazol-2-yl)cyclopropane-1-carboxamide], the pIC50 is above 7.00. As to `O=C(Nc1nc2ccc(-c3c(Cl)c(F)cc4[nH]ncc34)cc2s1)[C@@H]1C[C@@H]1F` [Example 41, (1S,2S)-N-(6-(5-chloro-6-fluoro-1H-indazol-4-yl)benzo[d]thiazol-2-yl)-2-fluorocyclopropane-1-carboxamide], the pIC50 was 6.30 to 7.00. As to `O=C(Nc1nc2ccc(-c3c(Br)c(F)cc4[nH]ncc34)cc2s1)[C@@H]1C[C@@H]1F` [Example 42, (1S,2S)-N-(6-(5-bromo-6-fluoro-1H-indazol-4-yl)benzo[d]thiazol-2-yl)-2-fluorocyclopropane-1-carboxamide], the pIC50 is 6.30 to 7.00. For the compound `Cc1c(F)cc2[nH]nc(Cl)c2c1-c1ccc2nc(NC(=O)[C@@H]3C[C@@H]3F)sc2c1` [Example 44, (1S,2S)-N-(6-(3-chloro-6-fluoro-5-methyl-1H-indazol-4-yl)benzo[d]thiazol-2-yl)-2-fluorocyclopropane-1-carboxamide], the negative logarithm of the IC50 (pIC50) is 6.00 to 6.30.

On to `Cc1c(F)cc2[nH]nc(I)c2c1-c1ccc2nc(NC(=O)[C@@H]3C[C@@H]3F)sc2c1` [Example 45, (1S,2S)-2-fluoro-N-(6-(6-fluoro-3-iodo-5-methyl-1H-indazol-4-yl)benzo[d]thiazol-2-yl)cyclopropane-1-carboxamide], for which the pIC50 is below 6.00. As for `CCc1c(F)cc2[nH]ncc2c1-c1ccc2nc(NC(=O)[C@@H]3C[C@@H]3F)sc2c1` [Example 46, (1S,2S)-N-(6-(5-ethyl-6-fluoro-1H-indazol-4-yl)benzo[d]thiazol-2-yl)-2-fluorocyclopropane-1-carboxamide], the pIC50 was above 7.00. With `C#Cc1c(F)cc2[nH]ncc2c1-c1ccc2nc(NC(=O)[C@@H]3C[C@@H]3F)sc2c1` [Example 47, (1S,2S)-N-(6-(5-ethynyl-6-fluoro-1H-indazol-4-yl)benzo[d]thiazol-2-yl)-2-fluorocyclopropane-1-carboxamide], the pIC50 was above 7.00. Next, `O=C(Nc1nc2ccc(-c3c(I)c(F)cc4[nH]ncc34)cc2s1)[C@@H]1C[C@@H]1F` [Example 48, (1S,2S)-2-fluoro-N-(6-(6-fluoro-5-iodo-1H-indazol-4-yl)benzo[d]thiazol-2-yl)cyclopropane-1-carboxamide]: above 7.00; `Cc1c(F)cc2[nH]nc(Br)c2c1-c1ccc2nc(NC(=O)[C@@H]3C[C@@H]3F)sc2c1` [Example 49, (1S,2S)-N-(6-(3-bromo-6-fluoro-5-methyl-1H-indazol-4-yl)benzo[d]thiazol-2-yl)-2-fluorocyclopropane-1-carboxamide]: 6.00 to 6.30; `O=C(Nc1nc2ccc(-c3c(C(F)(F)F)c(F)cc4[nH]ncc34)cc2s1)[C@@H]1C[C@@H]1F` [Example 50, (1S,2S)-2-fluoro-N-(6-(6-fluoro-5-(trifluoromethyl)-1H-indazol-4-yl)benzo[d]thiazol-2-yl)cyclopropane-1-carboxamide]: above 7.00. On to `Cc1c(F)c(Cl)c2[nH]ncc2c1-c1ccc2nc(NC(=O)[C@@H]3C[C@@H]3F)sc2c1` [Example 51, (1S,2S)-N-(6-(7-chloro-6-fluoro-5-methyl-1H-indazol-4-yl)benzo[d]thiazol-2-yl)-2-fluorocyclopropane-1-carboxamide], for which the negative-log IC50 (pIC50) is above 7.00. Regarding `C=Cc1n[nH]c2cc(F)c(C)c(-c3ccc4nc(NC(=O)[C@@H]5C[C@@H]5F)sc4c3)c12` [Example 52, (1S,2S)-2-fluoro-N-(6-(6-fluoro-5-methyl-3-vinyl-1H-indazol-4-yl)benzo[d]thiazol-2-yl)cyclopropane-1-carboxamide], the pIC50 is below 6.00. As for `Cc1c(F)c(Cl)c2[nH]nc(Cl)c2c1-c1ccc2nc(NC(=O)[C@@H]3C[C@@H]3F)sc2c1` [Example 53, (1S,2S)-N-(6-(3,7-dichloro-6-fluoro-5-methyl-1H-indazol-4-yl)benzo[d]thiazol-2-yl)-2-fluorocyclopropane-1-carboxamide], the negative-log IC50 (pIC50) was 6.30 to 7.00.

Consider `Cc1c(F)c(Cl)c2[nH]nc(Cl)c2c1-c1cc(Cl)c2nc(NC(=O)[C@@H]3C[C@@H]3F)sc2c1` [Example 54, (1S,2S)-N-(4-chloro-6-(3,7-dichloro-6-fluoro-5-methyl-1H-indazol-4-yl)benzo[d]thiazol-2-yl)-2-fluorocyclopropane-1-carboxamide], for which the pIC50 was below 6.00.

Turning to `Cc1c(F)c(F)c2[nH]nc(F)c2c1-c1ccc2nc(NC(=O)[C@@H]3C[C@@H]3F)sc2c1` [Example 55, (1S,2S)-2-fluoro-N-(6-(3,6,7-trifluoro-5-methyl-1H-indazol-4-yl)benzo[d]thiazol-2-yl)cyclopropane-1-carboxamide], the pIC50 was 6.30 to 7.00. As to `Cc1c(F)c(Cl)c(-c2ccc3nc(NC(=O)[C@@H]4C[C@@H]4F)sc3c2)c2cn[nH]c12` [Example 57, (1S,2S)-N-(6-(5-chloro-6-fluoro-7-methyl-1H-indazol-4-yl)benzo[d]thiazol-2-yl)-2-fluorocyclopropane-1-carboxamide], the pIC50 is above 7.00. Take `CSc1c(F)c(Cl)c(-c2ccc3nc(NC(=O)[C@@H]4C[C@@H]4F)sc3c2)c2cn[nH]c12` [Example 58, (1S,2S)-N-(6-(5-chloro-6-fluoro-7-(methylthio)-1H-indazol-4-yl)benzo[d]thiazol-2-yl)-2-fluorocyclopropane-1-carboxamide]: the pIC50 is above 7.00.

Regarding `Cc1c(F)c(C)c2[nH]ncc2c1-c1ccc2nc(NC(=O)[C@@H]3C[C@@H]3F)sc2c1` [Example 59, (1S,2S)-2-fluoro-N-(6-(6-fluoro-5,7-dimethyl-1H-indazol-4-yl)benzo[d]thiazol-2-yl)cyclopropane-1-carboxamide], the pIC50 was above 7.00. For `CP(C)(=O)c1c(F)c(Cl)c(-c2ccc3nc(NC(=O)[C@@H]4C[C@@H]4F)sc3c2)c2cn[nH]c12` [Example 60, (1S,2S)-N-(6-(5-chloro-7-(dimethylphosphoryl)-6-fluoro-1H-indazol-4-yl)benzo[d]thiazol-2-yl)-2-fluorocyclopropane-1-carboxamide], the pIC50 was below 6.00. For the compound `C=Cc1c(F)c(Cl)c(-c2ccc3nc(NC(=O)[C@@H]4C[C@@H]4F)sc3c2)c2cn[nH]c12` [Example 61, (1S,2S)-N-(6-(5-chloro-6-fluoro-7-vinyl-1H-indazol-4-yl)benzo[d]thiazol-2-yl)-2-fluorocyclopropane-1-carboxamide], the pIC50 was above 7.00. Regarding `C=Cc1c(F)c(C)c(-c2ccc3nc(NC(=O)[C@@H]4C[C@@H]4F)sc3c2)c2cn[nH]c12` [Example 62, (1S,2S)-2-fluoro-N-(6-(6-fluoro-5-methyl-7-vinyl-1H-indazol-4-yl)benzo[d]thiazol-2-yl)cyclopropane-1-carboxamide], the pIC50 is 6.30 to 7.00.

As for `C[S+]([O-])c1c(F)c(Cl)c(-c2ccc3nc(NC(=O)[C@@H]4C[C@@H]4F)sc3c2)c2cn[nH]c12` (stereo partly drawn) [Example 63, (1S,2S)-N-(6-(5-chloro-6-fluoro-7-(methylsulfinyl)-1H-indazol-4-yl)benzo[d]thiazol-2-yl)-2-fluorocyclopropane-1-carboxamide], the pIC50 is above 7.00.

As for `CSc1c(F)c(C)c(-c2ccc3nc(NC(=O)[C@@H]4C[C@@H]4F)sc3c2)c2cn[nH]c12` [Example 64, (1S,2S)-2-fluoro-N-(6-(6-fluoro-5-methyl-7-(methylthio)-1H-indazol-4-yl)benzo[d]thiazol-2-yl)cyclopropane-1-carboxamide], the pIC50 is above 7.00. Next, `Cc1c(F)cc2[nH]ncc2c1-c1ccc2nc(NC(=O)[C@@H]3C[C@@H]3F)sc2c1CCc1ccncc1` [Example 65, (1S,2S)-2-fluoro-N-(6-(6-fluoro-5-methyl-1H-indazol-4-yl)-7-(2-(pyridin-4-yl)ethyl)benzo[d]thiazol-2-yl)cyclopropane-1-carboxamide]: above 7.00; `Cc1c(F)c([S+](C)[O-])c2[nH]ncc2c1-c1ccc2nc(NC(=O)[C@@H]3C[C@@H]3F)sc2c1` (stereo partly drawn) [Example 66, (1S,2S)-2-fluoro-N-(6-(6-fluoro-5-methyl-7-(methylsulfinyl)-1H-indazol-4-yl)benzo[d]thiazol-2-yl)cyclopropane-1-carboxamide]: above 7.00. For the compound `Cc1c(F)c(I)c2[nH]ncc2c1-c1ccc2nc(NC(=O)[C@@H]3C[C@@H]3F)sc2c1` [Example 67, (1S,2S)-2-fluoro-N-(6-(6-fluoro-7-iodo-5-methyl-1H-indazol-4-yl)benzo[d]thiazol-2-yl)cyclopropane-1-carboxamide], the negative-log IC50 (pIC50) was above 7.00.
